In article PMC5966831 (Biochemistry, 2013):
Read-outs that look alike come from different tables or passages of the source.

B1: E. coli RBP: Escherichia coli ribose binding protein (protein, UniProt P02925 26-296, looked up)
Ribose import binding protein …: KDTIALVVSTLNNPFFVSLKDGAQKEADKLGYNLVVLDSQNNPAKELANVQDLTVRGTKILLINPTDSDAVGNAVKMANQANIPVITLDRQATKGEVVSHIASDNVLGGKIAGDYIAKKAGEGAKVIELQGIAGTSAARERGEGFQQAVAAHKFNVLASQPADFDRIKGLNVMQNLLTAHPDVQAVFAQNDEMALGALRALQTAGKSDVMVVGFDGTPDGEKAVNDGKLAATIAQLPDQIGAKGVETADKVLKGEKVQAKYPVDLKLVVKQ

Assays:
AFF186 [1] = target: T1, AFF186 (Caldanaerobacter subterraneus, UniProt Q8RD41, C137S/D254S/INS221C/L167D); format: binding; details: SD, n = 3
N′70 = N′70 (Caldanaerobacter subterraneus, UniProt Q8RD41, C137S/L167D); format: binding; details: SD, n = 3
AFF70 [2] = target: T2, AFF70 (Caldanaerobacter subterraneus, UniProt Q8RD41, C137S/F53A/F54A/INS105C/L167D); assay: Equilibrium fluorescence; format: binding
AFF210 [3] = target: T3, AFF210 (Caldanaerobacter subterraneus, UniProt Q8RD41, C137S/D254S/INS245C/L167D); assay: Equilibrium fluorescence; format: binding
N′210 = N′210 (Caldanaerobacter subterraneus, UniProt Q8RD41, C137S/L167D); format: binding; details: SD, n = 3
N′60 = N′60 (Caldanaerobacter subterraneus, UniProt Q8RD41, C137S/L167D); format: binding; details: SD, n = 3
AFF70 [4] = target: T2, AFF70; format: binding; details: SD, n = 3
AFF210 [5] = target: T3, AFF210; format: binding; details: SD, n = 3
N′186 = N′186 (Caldanaerobacter subterraneus, UniProt Q8RD41, C137S/L167D); format: binding; details: SD, n = 3
AFF186 [6] = target: T1, AFF186; assay: Equilibrium fluorescence; format: binding
[7] = Thermal denaturation monitored by circular dichroism; format: physicochemical; details: E. coli RBP and its permutants, apo forms, Figure S7

Molecule	Kd (AFF186 [1]) [nM]	Kd (N′70) [nM]	Kd (AFF70 [2]) [nM]	Kd (AFF210 [3]) [nM]	Kd (N′210) [nM]	Kd (N′60) [nM]	Kd (AFF70 [4]) [nM]	Kd (AFF210 [5]) [nM]	Kd (N′186) [nM]	Kd (AFF186 [6]) [nM]	Tm [7] [°C]
OC1OC[C@@H](O)[C@@H](O)[C@H]1O (stereo partly drawn) [ribose, D-ribose]	58.8 ± 0.17	2740 ± 240	4200	4200	21.6 ± 1.4	21.3 ± 1.1	46.6 ± 5.5	26.1 ± 1.5	38.1 ± 0.4	12300	–
B1	–	–	–	–	–	–	–	–	–	–	55
